Consider 24 compounds from patent publication US10703755B2, “Substituted purine derivative” (SUMITOMO DAINIPPON PHARMA CO., LTD., priority 2016, dated 2020).

In this assay the target is human TLR7 (Homo sapiens (Human), UniProt Q9NYK1). The experiment in a line: Test for evaluating the inhibition of the activation of human TLR7 (SEAP reporter, TLR7/NF-κB/SEAPorter HEK293 cell). Particulars: R-848 200 nmol/L; for inhibitory effect against TLR7 in the test for evaluating inhibition of the activation of TLR7: SEAP activity, result in words; for IC50: SEAP reporter. Format: cell-based. Summed up:
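The readout is secreted alkaline phosphatase under NF-κB response-element control in TLR7/NF-κB/SEAPorter HEK293 cells, which stably express full-length human TLR7. Cells were plated at 5×10^4 per well and grown overnight at 37° C, 5% CO2, in DMEM/10% FBS/blasticidin.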

human TLR7, sequence (Q9NYK1 27-1049): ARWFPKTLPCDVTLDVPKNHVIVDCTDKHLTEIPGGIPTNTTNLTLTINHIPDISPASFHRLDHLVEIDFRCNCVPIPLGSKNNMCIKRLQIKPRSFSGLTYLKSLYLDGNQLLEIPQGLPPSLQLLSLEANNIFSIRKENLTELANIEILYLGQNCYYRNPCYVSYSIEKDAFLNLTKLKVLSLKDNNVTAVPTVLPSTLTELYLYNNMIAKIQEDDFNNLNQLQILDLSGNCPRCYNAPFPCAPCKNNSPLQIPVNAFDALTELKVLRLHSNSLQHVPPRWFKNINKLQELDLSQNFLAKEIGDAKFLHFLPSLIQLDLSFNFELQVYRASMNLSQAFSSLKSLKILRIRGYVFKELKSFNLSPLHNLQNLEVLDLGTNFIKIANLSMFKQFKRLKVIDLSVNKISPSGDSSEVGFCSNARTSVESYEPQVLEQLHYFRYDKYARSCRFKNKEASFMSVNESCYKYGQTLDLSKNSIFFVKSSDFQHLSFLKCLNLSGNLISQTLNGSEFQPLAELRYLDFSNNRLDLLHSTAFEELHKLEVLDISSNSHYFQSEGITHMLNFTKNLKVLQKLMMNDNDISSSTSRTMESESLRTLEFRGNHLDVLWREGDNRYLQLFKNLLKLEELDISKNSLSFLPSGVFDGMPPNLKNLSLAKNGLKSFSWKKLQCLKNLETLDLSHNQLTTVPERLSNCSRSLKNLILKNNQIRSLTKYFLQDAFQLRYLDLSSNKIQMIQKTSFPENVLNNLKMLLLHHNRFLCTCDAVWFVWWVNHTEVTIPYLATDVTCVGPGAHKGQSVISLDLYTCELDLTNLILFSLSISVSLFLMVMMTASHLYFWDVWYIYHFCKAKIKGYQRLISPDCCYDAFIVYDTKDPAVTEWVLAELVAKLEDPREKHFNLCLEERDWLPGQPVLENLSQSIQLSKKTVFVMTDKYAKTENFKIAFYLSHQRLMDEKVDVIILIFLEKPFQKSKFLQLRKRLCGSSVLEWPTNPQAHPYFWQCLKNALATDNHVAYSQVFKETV

Turning to `CCOc1nc(C)c2nc(-c3cncc(F)c3)n(Cc3cnn(CCN4CCN(C)CC4)c3)c2n1` [Example 300], the “inhibitory effect against TLR7 in the test for evaluating inhibition of the activation of TLR7” value (“inhibitory effect against TLR7” below) is given as “potent inhibitory effect against TLR7” and the IC50 came to 28 nM. The matching figures for `COc1cncc(-c2nc3c(C)nc(OC)nc3n2Cc2ccc(C3CN4CCC3CC4)cc2F)c1` (centres unmarked) [Example 302]: “potent inhibitory effect against TLR7” and 67 nM.

Consider `COc1nc(C)c2nc(-c3cccnc3)n(Cc3ccc(C4CN5CCC4CC5)cc3F)c2n1` (centres unmarked) [Example 303, 9-[4-(1-azabicyclo[2.2.2]oct-3-yl)-2-fluorobenzyl]-2-methoxy-6-methyl-8-(pyridin-3-yl)-9H-purine], for which the “inhibitory effect against TLR7” value is “potent inhibitory effect against TLR7” and the IC50 was determined as 7 nM. The matching figures for `COc1nc(C)c2nc(-c3cnccc3C)n(Cc3ccc(C4CN5CCC4CC5)cc3F)c2n1` (centres unmarked) [Example 304, 9-[4-(1-azabicyclo[2.2.2]oct-3-yl)-2-fluorobenzyl]-2-methoxy-6-methyl-8-(4-methylpyridin-3-yl)-9H-purine]: “potent inhibitory effect against TLR7” and 4 nM. The like results for `COc1nc(C)c2nc(-c3cncc(C)c3)n(Cc3ccc(C4CN5CCC4CC5)cc3F)c2n1` (centres unmarked) [Example 305, 9-[4-(1-azabicyclo[2.2.2]oct-3-yl)-2-fluorobenzyl]-2-methoxy-6-methyl-8-(5-methylpyridin-3-yl)-9H-purine] were, in that order, “potent inhibitory effect against TLR7” and 5 nM. The matching figures for `COc1nc(C)c2nc(-c3ccc(C)nc3)n(Cc3ccc(C4CN5CCC4CC5)cc3F)c2n1` (centres unmarked) [Example 306]: “potent inhibitory effect against TLR7” and 40 nM. On to `CCOc1nc(C)c2nc(-c3cncc(F)c3)n(Cc3ccc(C4CN(C)CCO4)cc3F)c2n1` (centres unmarked) [Example 307], for which the “inhibitory effect against TLR7” value is reported as “potent inhibitory effect against TLR7” and the IC50 came to 57 nM. The matching figures for `COc1nc(C)c2nc(-c3cncc(C#N)c3)n(Cc3ccc(CN4C[C@@H]5C[C@H]4CN5C)cc3F)c2n1` [Example 308, 5-[9-(2-fluoro-4-{[(1S,4S)-5-methyl-2,5-diazabicyclo[2.2.1]hept-2-yl]methyl}benzyl)-2-methoxy-6-methyl-9H-purin-8-yl]pyridine-3-carbonitrile]: “potent inhibitory effect against TLR7” and 27 nM.

As for `CCN1C[C@@H]2C[C@H]1CN2Cc1ccc(Cn2c(-c3cncc(C#N)c3)nc3c(C)nc(OC)nc32)c(F)c1` [Example 309, 5-[9-(4-{[(1S,4S)-5-ethyl-2,5-diazabicyclo[2.2.1]hept-2-yl]methyl}-2-fluorobenzyl)-2-methoxy-6-methyl-9H-purin-8-yl]pyridine-3-carbonitrile], the “inhibitory effect against TLR7” value was “potent inhibitory effect against TLR7” and inhibition was half-maximal at 20 nM (IC50).

With `COc1nc(C)c2nc(-c3cccnc3)n(Cc3ccc(CN4C[C@@H]5C[C@H]4CN5C)cc3F)c2n1` [Example 310, 9-(2-fluoro-4-{[(1S,4S)-5-methyl-2,5-diazabicyclo[2.2.1]hept-2-yl]methyl}benzyl)-2-methoxy-6-methyl-8-(pyridin-3-yl)-9H-purine], the “inhibitory effect against TLR7” value is given as “potent inhibitory effect against TLR7” and the concentration for half-maximal inhibition (IC50) is 28 nM. The matching figures for `CCOc1nc(C)c2nc(-c3cncc(C#N)c3)n(Cc3ccc(CN4C[C@@H]5C[C@H]4CN5C)cc3F)c2n1` [Example 311, 5-[2-ethoxy-9-(2-fluoro-4-{[(1S,4S)-5-methyl-2,5-diazabicyclo[2.2.1]hept-2-yl]methyl}benzyl)-6-methyl-9H-purin-8-yl]pyridine-3-carbonitrile]: “potent inhibitory effect against TLR7” and 11 nM.

As to `CCOc1nc(C)c2nc(-c3cncnc3)n(Cc3ccc(CN4C[C@@H]5C[C@H]4CN5C)cc3F)c2n1` [Example 312, 2-ethoxy-9-(2-fluoro-4-{[(1S,4S)-5-methyl-2,5-diazabicyclo[2.2.1]hept-2-yl]methyl}benzyl)-6-methyl-8-(pyrimidin-5-yl)-9H-purine], the “inhibitory effect against TLR7” value is “potent inhibitory effect against TLR7” and half-maximal inhibition (IC50) was put at 25 nM. The like results for `CCOc1nc(C)c2nc(-c3cncc(F)c3)n(Cc3ccc(CN4C[C@@H]5C[C@H]4CN5C)cc3F)c2n1` [Example 313, 2-ethoxy-9-(2-fluoro-4-{[(1S,4S)-5-methyl-2,5-diazabicyclo[2.2.1]hept-2-yl]methyl}benzyl)-8-(5-fluoropyridin-3-yl)-6-methyl-9H-purine] were, in that order, “potent inhibitory effect against TLR7” and 8 nM. The like results for `COc1nc(C)c2nc(-c3cncc(F)c3)n(Cc3ccc(C4CN5CCC4CC5)cc3F)c2n1` (centres unmarked) [Example 314] were, in that order, “potent inhibitory effect against TLR7” and 8 nM. For the compound `CCOc1nc(C)c2nc(-c3cncc(F)c3)n(Cc3cc(OC)c(C4CN5CCC4CC5)cc3F)c2n1` (centres unmarked) [Example 317], the IC50 was 1610 nM.

On to `COc1nc(C)c2nc(-c3cncc(C#N)c3)n(Cc3ccc(O[C@@H]4CN5CCC4CC5)cc3F)c2n1` [Example 322, 5-(9-{4-[(3S)-1-azabicyclo[2.2.2]oct-3-yloxy]-2-fluorobenzyl}-2-methoxy-6-methyl-9H-purin-8-yl)pyridine-3-carbonitrile], for which the “inhibitory effect against TLR7” value is reported as “potent inhibitory effect against TLR7” and the IC50 turned out to be 13 nM. The matching figures for `COc1nc(C)c2nc(-c3cncnc3)n(Cc3ccc(O[C@@H]4CN5CCC4CC5)cc3F)c2n1` [Example 323, 9-{4-[(3S)-1-azabicyclo[2.2.2]oct-3-yloxy]-2-fluorobenzyl}-2-methoxy-6-methyl-8-(pyrimidin-5-yl)-9H-purine]: “potent inhibitory effect against TLR7” and 70 nM. `CCOc1nc(C)c2nc(-c3cncc(F)c3)n(Cc3ccc(Br)cc3OC)c2n1` [Example 325] registered a 50% inhibitory concentration (IC50) of 1520 nM. The same measure, in the same setting: next, `COc1nc(C)c2nc(-c3cncc(F)c3)n(Cc3cc(Br)ccc3F)c2n1` [Example 326]: 389 nM. As for `CCOc1nc(C)c2nc(-c3cncc(F)c3)n(Cc3ccc(C4CN5CCC4CC5)nc3OC)c2n1` (centres unmarked) [Example 327], the “inhibitory effect against TLR7” value was “potent inhibitory effect against TLR7” and half-maximal inhibition (IC50) required 23 nM. Compound `COc1nc(C)c2nc(-c3cnc(C)nc3)n(Cc3ccc(OC4CN5CCC4CC5)cc3F)c2n1` (centres unmarked) [Example 329] showed a concentration for half-maximal inhibition (IC50) of 120 nM. Same read-out and setting: the same measure for `CCOc1nc(C)c2nc(-c3cncc(F)c3)n(Cc3cnc(C4CN5CCC4CC5)cc3C)c2n1` (centres unmarked) [Example 330]: 213 nM; for `COc1nc(C)c2nc(-c3cncc(F)c3)n(Cc3ccc(Br)c(F)c3)c2n1` [Example 332]: 6480 nM; for `COc1nc(C)c2nc(-c3cncc(F)c3)n(Cc3ccc(Br)cc3F)c2n1` [Example 337]: 1340 nM.
